#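 Cultured in 96-well plates, cells were exposed to test compound for 48 hours across five concentrations. At the GI50, growth is halved. The concentration for full growth arrest is given as TGI.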
# Tested on: EKVX NSCLC
# Assay: NCI-60 cell line screen, 48 h
SMILES,GI50 [µM],TGI [µM]
c1ccc(Sc2ccc(Cc3nc4cc5ccccc5cc4[nH]3)cc2)cc1,12.5,> 100
CCc1nc2cc(F)c(/C=C/C(=O)NO)cc2c(=O)n1CCc1ccccc1,0.387,15.7
COc1cc(OC)c(C(=O)/C=C/c2cccc(C(F)(F)F)c2)c(OC)c1,1.5,4.3
COc1cc2c(cc1OCCCCC(=O)Nc1cc3c4ccccc4ccc3c3ccccc13)N=C[C@@H]1CCCN1C2=O,17.3,64.2
CCOC(=O)C(=O)Nc1ccccc1CC,–,> 100
CN1CCc2nc(N)nc(-c3nc(N)nc4c3CN(C)CC4)c2C1,–,> 100
Cc1cc(NS(=O)(=O)c2ccc(Nc3c4ccccc4nc4c(C(=O)N5CCN(CCO)CC5)cccc34)cc2)no1,–,> 100
COc1ccc(C[N+](C)(C)N)cc1OC,–,> 100
COc1ccc(-c2cc(-c3cc(C)cc(Br)c3O)no2)cc1,–,78.3
COc1c(C(=O)/C=C/c2ccccc2)c(O)cc2occc12,12.5,25.6
CC(C)c1c(O)c(O)c2c(c1O)C(=O)C(O)=C1C(C)(C)CCC[C@@]12C,–,11.5
NS(=O)(=O)c1ccc(-c2ccc3c(NC(=O)C4CC4)n[nH]c3c2)cc1,> 25,> 25

# Tested on: K-562 leukemia
# Assay: NCI-60 cell line screen, 48 h
SMILES,GI50 [nM],TGI [µM]
c1ccc(Sc2ccc(Cc3nc4cc5ccccc5cc4[nH]3)cc2)cc1,279,> 47.8
CCc1nc2cc(F)c(/C=C/C(=O)NO)cc2c(=O)n1CCc1ccccc1,303,> 100
COc1cc(OC)c(C(=O)/C=C/c2cccc(C(F)(F)F)c2)c(OC)c1,1260,4.83
COc1cc2c(cc1OCCCCC(=O)Nc1cc3c4ccccc4ccc3c3ccccc13)N=C[C@@H]1CCCN1C2=O,1550,> 38.9
CCOC(=O)C(=O)Nc1ccccc1CC,–,> 100
CN1CCc2nc(N)nc(-c3nc(N)nc4c3CN(C)CC4)c2C1,–,> 100
Cc1cc(NS(=O)(=O)c2ccc(Nc3c4ccccc4nc4c(C(=O)N5CCN(CCO)CC5)cccc34)cc2)no1,–,> 100
COc1ccc(C[N+](C)(C)N)cc1OC,–,> 100
COc1ccc(-c2cc(-c3cc(C)cc(Br)c3O)no2)cc1,–,> 100
COc1c(C(=O)/C=C/c2ccccc2)c(O)cc2occc12,4420,> 100
CC(C)c1c(O)c(O)c2c(c1O)C(=O)C(O)=C1C(C)(C)CCC[C@@]12C,–,9.69
NS(=O)(=O)c1ccc(-c2ccc3c(NC(=O)C4CC4)n[nH]c3c2)cc1,> 25000,> 25

# Tested on: KM12 colon
# Assay: NCI-60 cell line screen, 48 h
SMILES,GI50 [nM],TGI [µM]
c1ccc(Sc2ccc(Cc3nc4cc5ccccc5cc4[nH]3)cc2)cc1,2210,46.2
CCc1nc2cc(F)c(/C=C/C(=O)NO)cc2c(=O)n1CCc1ccccc1,412,15
COc1cc(OC)c(C(=O)/C=C/c2cccc(C(F)(F)F)c2)c(OC)c1,1790,6.42
COc1cc2c(cc1OCCCCC(=O)Nc1cc3c4ccccc4ccc3c3ccccc13)N=C[C@@H]1CCCN1C2=O,3870,18.5
CCOC(=O)C(=O)Nc1ccccc1CC,–,> 100
CN1CCc2nc(N)nc(-c3nc(N)nc4c3CN(C)CC4)c2C1,–,> 100
Cc1cc(NS(=O)(=O)c2ccc(Nc3c4ccccc4nc4c(C(=O)N5CCN(CCO)CC5)cccc34)cc2)no1,–,> 100
COc1ccc(C[N+](C)(C)N)cc1OC,> 100000,> 100
COc1ccc(-c2cc(-c3cc(C)cc(Br)c3O)no2)cc1,–,> 100
COc1c(C(=O)/C=C/c2ccccc2)c(O)cc2occc12,3710,13.3
CC(C)c1c(O)c(O)c2c(c1O)C(=O)C(O)=C1C(C)(C)CCC[C@@]12C,–,12.2
NS(=O)(=O)c1ccc(-c2ccc3c(NC(=O)C4CC4)n[nH]c3c2)cc1,> 25000,> 25

# Tested on: M14 melanoma
# Assay: NCI-60 cell line screen, 48 h
SMILES,GI50 [µM],TGI [µM]
c1ccc(Sc2ccc(Cc3nc4cc5ccccc5cc4[nH]3)cc2)cc1,21,> 74.5
CCc1nc2cc(F)c(/C=C/C(=O)NO)cc2c(=O)n1CCc1ccccc1,0.355,4.78
COc1cc(OC)c(C(=O)/C=C/c2cccc(C(F)(F)F)c2)c(OC)c1,1.06,2.62
COc1cc2c(cc1OCCCCC(=O)Nc1cc3c4ccccc4ccc3c3ccccc13)N=C[C@@H]1CCCN1C2=O,8.1,33
CCOC(=O)C(=O)Nc1ccccc1CC,–,> 100
CN1CCc2nc(N)nc(-c3nc(N)nc4c3CN(C)CC4)c2C1,–,> 100
Cc1cc(NS(=O)(=O)c2ccc(Nc3c4ccccc4nc4c(C(=O)N5CCN(CCO)CC5)cccc34)cc2)no1,–,> 100
COc1ccc(C[N+](C)(C)N)cc1OC,> 100,> 100
COc1ccc(-c2cc(-c3cc(C)cc(Br)c3O)no2)cc1,–,> 100
COc1c(C(=O)/C=C/c2ccccc2)c(O)cc2occc12,8.89,25.7
CC(C)c1c(O)c(O)c2c(c1O)C(=O)C(O)=C1C(C)(C)CCC[C@@]12C,–,19.3
NS(=O)(=O)c1ccc(-c2ccc3c(NC(=O)C4CC4)n[nH]c3c2)cc1,> 25,> 25

# Tested on: MOLT-4 leukemia
# Assay: NCI-60 cell line screen, 48 h
SMILES,GI50 [µM],TGI [µM]
c1ccc(Sc2ccc(Cc3nc4cc5ccccc5cc4[nH]3)cc2)cc1,8.18,> 100
CCc1nc2cc(F)c(/C=C/C(=O)NO)cc2c(=O)n1CCc1ccccc1,0.353,29.1
COc1cc(OC)c(C(=O)/C=C/c2cccc(C(F)(F)F)c2)c(OC)c1,0.873,3.75
COc1cc2c(cc1OCCCCC(=O)Nc1cc3c4ccccc4ccc3c3ccccc13)N=C[C@@H]1CCCN1C2=O,4.62,> 100
CCOC(=O)C(=O)Nc1ccccc1CC,–,> 100
CN1CCc2nc(N)nc(-c3nc(N)nc4c3CN(C)CC4)c2C1,–,> 100
Cc1cc(NS(=O)(=O)c2ccc(Nc3c4ccccc4nc4c(C(=O)N5CCN(CCO)CC5)cccc34)cc2)no1,–,> 100
COc1ccc(C[N+](C)(C)N)cc1OC,> 100,> 100
COc1ccc(-c2cc(-c3cc(C)cc(Br)c3O)no2)cc1,–,> 100
COc1c(C(=O)/C=C/c2ccccc2)c(O)cc2occc12,3.36,> 100
CC(C)c1c(O)c(O)c2c(c1O)C(=O)C(O)=C1C(C)(C)CCC[C@@]12C,–,5.99
NS(=O)(=O)c1ccc(-c2ccc3c(NC(=O)C4CC4)n[nH]c3c2)cc1,> 25,> 25

# Tested on: NCI-H522 lung
# Assay: NCI-60 cell line screen, 48 h
SMILES,GI50 [µM],TGI [µM]
c1ccc(Sc2ccc(Cc3nc4cc5ccccc5cc4[nH]3)cc2)cc1,9.69,> 62.9
CCc1nc2cc(F)c(/C=C/C(=O)NO)cc2c(=O)n1CCc1ccccc1,0.171,0.392
COc1cc(OC)c(C(=O)/C=C/c2cccc(C(F)(F)F)c2)c(OC)c1,0.857,1.94
COc1cc2c(cc1OCCCCC(=O)Nc1cc3c4ccccc4ccc3c3ccccc13)N=C[C@@H]1CCCN1C2=O,4.25,> 100
CCOC(=O)C(=O)Nc1ccccc1CC,–,> 100
CN1CCc2nc(N)nc(-c3nc(N)nc4c3CN(C)CC4)c2C1,–,> 100
Cc1cc(NS(=O)(=O)c2ccc(Nc3c4ccccc4nc4c(C(=O)N5CCN(CCO)CC5)cccc34)cc2)no1,–,> 100
COc1ccc(C[N+](C)(C)N)cc1OC,> 100,> 100
COc1ccc(-c2cc(-c3cc(C)cc(Br)c3O)no2)cc1,–,30.2
COc1c(C(=O)/C=C/c2ccccc2)c(O)cc2occc12,4.29,15.7
CC(C)c1c(O)c(O)c2c(c1O)C(=O)C(O)=C1C(C)(C)CCC[C@@]12C,–,13.4
NS(=O)(=O)c1ccc(-c2ccc3c(NC(=O)C4CC4)n[nH]c3c2)cc1,> 25,> 25

# Tested on: OVCAR-3 ovarian
# Assay: NCI-60 cell line screen, 48 h
SMILES,GI50 [µM],TGI [µM]
c1ccc(Sc2ccc(Cc3nc4cc5ccccc5cc4[nH]3)cc2)cc1,8.34,39.8
CCc1nc2cc(F)c(/C=C/C(=O)NO)cc2c(=O)n1CCc1ccccc1,0.323,10.8
COc1cc(OC)c(C(=O)/C=C/c2cccc(C(F)(F)F)c2)c(OC)c1,2.03,6.89
COc1cc2c(cc1OCCCCC(=O)Nc1cc3c4ccccc4ccc3c3ccccc13)N=C[C@@H]1CCCN1C2=O,3.02,10.1
CCOC(=O)C(=O)Nc1ccccc1CC,–,> 100
CN1CCc2nc(N)nc(-c3nc(N)nc4c3CN(C)CC4)c2C1,–,> 100
Cc1cc(NS(=O)(=O)c2ccc(Nc3c4ccccc4nc4c(C(=O)N5CCN(CCO)CC5)cccc34)cc2)no1,–,> 100
COc1ccc(C[N+](C)(C)N)cc1OC,> 100,> 100
COc1ccc(-c2cc(-c3cc(C)cc(Br)c3O)no2)cc1,–,23.9
COc1c(C(=O)/C=C/c2ccccc2)c(O)cc2occc12,3.76,11.3
CC(C)c1c(O)c(O)c2c(c1O)C(=O)C(O)=C1C(C)(C)CCC[C@@]12C,–,16.2
NS(=O)(=O)c1ccc(-c2ccc3c(NC(=O)C4CC4)n[nH]c3c2)cc1,> 25,> 25

# Tested on: SF-539 CNS
# Assay: NCI-60 cell line screen, 48 h
SMILES,GI50 [nM],TGI [µM]
c1ccc(Sc2ccc(Cc3nc4cc5ccccc5cc4[nH]3)cc2)cc1,1340,19.5
CCc1nc2cc(F)c(/C=C/C(=O)NO)cc2c(=O)n1CCc1ccccc1,341,3.36
COc1cc(OC)c(C(=O)/C=C/c2cccc(C(F)(F)F)c2)c(OC)c1,1370,3.5
COc1cc2c(cc1OCCCCC(=O)Nc1cc3c4ccccc4ccc3c3ccccc13)N=C[C@@H]1CCCN1C2=O,2220,9.06
CCOC(=O)C(=O)Nc1ccccc1CC,–,> 100
CN1CCc2nc(N)nc(-c3nc(N)nc4c3CN(C)CC4)c2C1,–,> 100
Cc1cc(NS(=O)(=O)c2ccc(Nc3c4ccccc4nc4c(C(=O)N5CCN(CCO)CC5)cccc34)cc2)no1,–,> 100
COc1ccc(C[N+](C)(C)N)cc1OC,> 100000,> 100
COc1ccc(-c2cc(-c3cc(C)cc(Br)c3O)no2)cc1,–,25
COc1c(C(=O)/C=C/c2ccccc2)c(O)cc2occc12,3220,13.5
CC(C)c1c(O)c(O)c2c(c1O)C(=O)C(O)=C1C(C)(C)CCC[C@@]12C,–,14.8
NS(=O)(=O)c1ccc(-c2ccc3c(NC(=O)C4CC4)n[nH]c3c2)cc1,> 25000,> 25

# Tested on: SK-MEL-5 melanoma
# Assay: NCI-60 cell line screen, 48 h
SMILES,GI50 [nM],TGI [µM]
c1ccc(Sc2ccc(Cc3nc4cc5ccccc5cc4[nH]3)cc2)cc1,2880,18.4
CCc1nc2cc(F)c(/C=C/C(=O)NO)cc2c(=O)n1CCc1ccccc1,256,0.701
COc1cc(OC)c(C(=O)/C=C/c2cccc(C(F)(F)F)c2)c(OC)c1,1070,2.54
COc1cc2c(cc1OCCCCC(=O)Nc1cc3c4ccccc4ccc3c3ccccc13)N=C[C@@H]1CCCN1C2=O,2930,7.61
CCOC(=O)C(=O)Nc1ccccc1CC,–,> 100
CN1CCc2nc(N)nc(-c3nc(N)nc4c3CN(C)CC4)c2C1,–,> 100
Cc1cc(NS(=O)(=O)c2ccc(Nc3c4ccccc4nc4c(C(=O)N5CCN(CCO)CC5)cccc34)cc2)no1,–,> 100
COc1ccc(C[N+](C)(C)N)cc1OC,> 100000,> 100
COc1ccc(-c2cc(-c3cc(C)cc(Br)c3O)no2)cc1,–,24.3
COc1c(C(=O)/C=C/c2ccccc2)c(O)cc2occc12,3870,16.3
CC(C)c1c(O)c(O)c2c(c1O)C(=O)C(O)=C1C(C)(C)CCC[C@@]12C,–,10.8
NS(=O)(=O)c1ccc(-c2ccc3c(NC(=O)C4CC4)n[nH]c3c2)cc1,> 25000,> 25

# Tested on: SNB-19 CNS
# Assay: NCI-60 cell line screen, 48 h
SMILES,GI50 [µM],TGI [µM]
c1ccc(Sc2ccc(Cc3nc4cc5ccccc5cc4[nH]3)cc2)cc1,8.89,> 100
CCc1nc2cc(F)c(/C=C/C(=O)NO)cc2c(=O)n1CCc1ccccc1,0.46,17
COc1cc(OC)c(C(=O)/C=C/c2cccc(C(F)(F)F)c2)c(OC)c1,1.44,4.67
COc1cc2c(cc1OCCCCC(=O)Nc1cc3c4ccccc4ccc3c3ccccc13)N=C[C@@H]1CCCN1C2=O,11.3,> 61.7
CCOC(=O)C(=O)Nc1ccccc1CC,–,> 100
CN1CCc2nc(N)nc(-c3nc(N)nc4c3CN(C)CC4)c2C1,–,> 100
Cc1cc(NS(=O)(=O)c2ccc(Nc3c4ccccc4nc4c(C(=O)N5CCN(CCO)CC5)cccc34)cc2)no1,–,> 100
COc1ccc(C[N+](C)(C)N)cc1OC,> 100,> 100
COc1ccc(-c2cc(-c3cc(C)cc(Br)c3O)no2)cc1,–,58
COc1c(C(=O)/C=C/c2ccccc2)c(O)cc2occc12,7.33,20.4
CC(C)c1c(O)c(O)c2c(c1O)C(=O)C(O)=C1C(C)(C)CCC[C@@]12C,–,22.1
NS(=O)(=O)c1ccc(-c2ccc3c(NC(=O)C4CC4)n[nH]c3c2)cc1,> 25,> 25
